US20140155445A1, “Compounds and Methods for Treating Cancer and Diseases of the Central Nervous System” (Osta Biotechnologies Inc., priority 2007, published 2014)
Entries after “also recorded” stand apart in the source; their conditions may differ.

What was measured:
[1] = test system: hHO-1 transfected primary rat astroglial cultures; assay: Protein carbonyl ELISA in hHO-1-transfected primary rat astroglia (whole-cell and mitochondrial compartments); format: cell-based
Experimental: Cells were grown in Ham's F12 and high glucose DMEM (50:50 v/v) supplemented with 10 mM HEPES, 5% heat-inactivated horse serum, 5% heat-inactivated fetal bovine serum, and penicillin-streptomycin (50 U/mL and 50 μg/mL, respectively).
Upon reaching >90% confluence, 1×10^6 cells were transiently transfected with 4.0 μg of plasmid DNA-Lipofectamine 2000 complex using Lipofectamine 2000 method according to manufacturer instructions (Invitrogen). […] 12 μg of plasmid DNA and 16 μl of Lipofectamine 2000 reagent were diluted in 1.5 mL opti-MEM I reduced serum medium and incubated for 5 minutes at room temperature with gentle mixing. The two solutions were combined, incubated at room temperature for 20 minutes to promote formation of DNA-lipid complexes and administered to the cells. 2 mL opti-MEM I reduced serum medium was added to the flasks to ensure coverage of the monolayer by the transfection mixture. Following incubation for 6 hours at 37° C., the transfection mixture was replaced with 10 mL of complete media without antibiotics.
The cells were sonicated (Sonics & Materials, Danbury, Conn.) at a power level of 50 for 3×20 s in a cooled water bath. […] Whole-cell and mitochondrial preparations were assayed for protein carbonyls as described below.
Protein carbonyls were reacted with 2,4-dinitrophenylhydrazine (DNP) and the hydrazone adducts were detected with anti-DNP antisera. Quantification was achieved by comparison with oxidized BSA standards. Oxidized (carbonylated) BSA was prepared by reacting natural BSA (at 50 mg/mL in PBS) with hypochlorous acid (5 mM) for 1 h at 37° C., followed by overnight dialysis against PBS at 4° C. […] The pellet was resuspended in 2 mL of same buffer, sonicated on ice 2×15 s at 20 W and centrifuged for 20 min at 4° C. at 1,303×g. Protein concentration of supernatant was measured with the RC DC protein assay based on the Lowry protocol (Bio-Rad Laboratories, Hercules, Calif.). All samples were adjusted to 4.0 mg protein/mL. […] Five microliters aliquots of each reaction mixture were mixed with 1 mL PBS and 200 μL replicates were added per well to 96-well immunoplates and incubated overnight at 4° C. After washing with PBS, nonspecific binding sites were blocked with 0.1% Tween 20 in PBS. […] A 6-point standard curve of reduced and oxidized BSA was generated for each plate analyzed. Specific absorbance for each sample was calculated by subtracting basal absorbance of the DNP reagent from the total absorbance.

rat C6 glioma cells = assay: Cell proliferation, [3H]thymidine incorporation, rat C6 glioma cells; format: cell-based; settings: 6.5 μM, 18 h, hHO-1-transfected rat C6 glioma cells; hydrochloride
Experimental: Rat C6 glioma cells were cultivated in high glucose DMEM supplemented with 10% heat-inactivated fetal bovine serum, […], and penicillin-streptomycin (50 U/mL and 50 μg/mL, respectively). […] All cultures were incubated at 37° C. in humidified 95% air-5% CO2.
Cells were seeded in 24-well plates at 1×10^6 cells/mL/well. Upon reaching >90% confluence, cells in each well were transiently transfected with 1.6 μg of plasmid DNA-Lipofectamine 2000 complex using Lipofectamine 2000 method according to manufacturer instructions (Invitrogen). 1.6 μg of plasmid DNA and 4 μL of Lipofectamine 2000 reagent were diluted individually in 100 μL opti-MEM I and incubated for 5 minutes at room temperature with gentle mixing. […]
Cell proliferation was determined by [^3H]thymidine incorporation: Cells were plated in 24-well plates at 10^6 cells/mL/well in complete medium. […] The cells were trypsinized and collected, air-dried on 21 mm glass microfibre filters (Whatman International Ltd., Maidstone, England) and analyzed by scintillation counting in a Wallac-Liquid Scintillator Counter (Perkin Elmer Life Sciences, Boston, Mass., USA). [^3H]thymidine incorporation was expressed as counts per min (cpm) per mL.

HO-2 (rat brain) = molecular target: T1, HO-2 (rat brain) (Rattus norvegicus, UniProt P23711); assay: HO enzymatic activity in rat brain microsomal fraction (CO formed from methemalbumin, gas chromatography); format: biochemical; settings: rat brain microsomes; average ± standard deviation of replicate experiments; hydrochloride; read-out: IC50 HO-2 (rat brain)/μM
T1 construct: brain microsomes were used as a source of HO-2; from tissue; host or cells: brain microsomal fraction of adult male Sprague-Dawley rats
T1 sequence (P23711 1-315): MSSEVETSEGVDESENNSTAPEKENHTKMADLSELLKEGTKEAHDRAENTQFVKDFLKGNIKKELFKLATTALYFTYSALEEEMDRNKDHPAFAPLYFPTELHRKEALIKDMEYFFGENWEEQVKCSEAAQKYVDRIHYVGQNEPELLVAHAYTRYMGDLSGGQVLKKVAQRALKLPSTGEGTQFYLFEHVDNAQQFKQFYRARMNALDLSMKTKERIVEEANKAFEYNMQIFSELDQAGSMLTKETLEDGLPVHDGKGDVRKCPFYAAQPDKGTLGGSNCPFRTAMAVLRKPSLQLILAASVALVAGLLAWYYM

[2] = test system: HCT-116 colorectal carcinoma; assay: Colorectal carcinoma model HCT-116 in SCID mice; format: in vivo, human
Description: Control groups received the vehicle alone.

With `Brc1ccc(CCC2(Cn3ccnc3)OCCO2)cc1.Cl` [QC-56, 1-((2-(2-(4-Bromophenyl)ethyl)-1,3-dioxolan-2-yl)methyl)-1H-imidazole hydrochloride] the “oxidative protein damage (protein carbonyls) accruing from hHO-1 transfection” value ([1]; 6.5 μM) was “significantly attenuated”, the “dose dependence of attenuation of oxidative protein damage” value ([1]; transiently transfected rat astroglia, hydrochloride) was “significant dose dependant attenuations; also recorded: in a dose dependent manner significantly decreased; also recorded: significant dose-dependant attenuations” and the “effect of hHO-1 transfection on 3H-thymidine incorporation” value (rat C6 glioma cells) was “significantly attenuated”. The IC50 (HO-2 (rat brain)) was no less than 100 µM, the mouse mortality ([2]; 60 mg/kg, HCT-116 model (FIG. 25)) was “but not QC-56, induced mortality” and the “reduction of tumor volume at the time of sacrifice compared to control” value ([2]; QC-56 60 mg/kg/ip, 5-FU 60 mg/kg/ip reduced to 40 mg/kg) was “approximately 23%”.
